According to patent publication US4389412A, “Substituted cyclopropanecarboxylic acid esters and pesticidal compositions containing the same as active ingredient” (priority 1979, dated 1983):

Experiments:
[1] = Fish toxicity test with guppies; assay type: in vivo, Lebistes reticulatus; settings: guppy, water, guppies, 20° C., read-out: TLm (48 hrs.)
Method in brief: (§1)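 Ten female guppies, 3–4 months old, held at 20 °C in water containing surfactant and test compound added in acetone solution. TLm (median tolerance limit, ppm) determined.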

[2] = tested on: guppies (Lebistes reticulatus); test: Fish toxicity test with guppies; assay type: in vivo; settings: Table 1; 48 hrs.
Method in brief: as §1

crop plants = test: Phytotoxicity test; assay type: in vivo; settings: 2,000 ppm solution on leaves, after 10 days
Source text: A 2,000 ppm solution of each of the cis- and trans-isomers and a 50:50 mixture of cis- and trans-isomers of Compound (1) and of Compound (2), and a 50:50 mixture of the cis- and trans-isomers of Compound (B) and Compound (E) was applied to the leaves of the following crop plants.
After 10 days, the crop plants were examined for their phytotoxicities.

fish = test: Toxicity to fish compared with other pyrethroids
Source text: This invention is the culmination of the above findings.

pests = test: Pesticidal effectiveness, overall; settings: in vivo
Source text: The pesticidal activity of the compounds according to this invention against green rice leafhoppers (Nephotettix cincticeps Uhler), rice stem borers (Chilo suppressalis Walker), tobacco cutworms (Prodenia litura […]) and houseflies (Musca domestica), as examples of the pests against which the same compounds are considered effective, the acute toxicity data on the same compounds as determined in rat by the oral route and the median tolerance limit (TLm) data on the same compounds as determined in killifish (Orizias latipes) and guppies (Lebistes reticulatus) are shown in Table 1 alongside the corresponding values for various control compounds. The pesticidal effects were determined by the procedures set forth in Test Examples 1 through 4, while the acute toxicity to rat was determined by the procedure set forth in Test Example 9 and the toxicity to fish was determined by the procedures set forth in Test Examples 6 and 7, all those Examples appearing hereinafter.

[3] = tested on: killifish (Orizias latipes); test: Fish toxicity test with killifish; assay type: in vivo; settings: Table 1; 48 hrs.
Method in brief: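 Test compound dispensed from acetone solution into water at set concentrations; ten aerated-water killifish (~0.25 g, ~2.5 cm) held at 25±1° C. Deaths scored after 48 hours; TLm (median tolerance limit, ppm) determined.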

carp (Cyprinus carpio L) = test: Fish toxicity test with carp; assay type: in vivo; settings: 48 hrs., 21±1° C.; 2880 min
Method in brief: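 Compound in acetone with Tween-20 dispersed in 50 L aerated water at a set concentration; five carp (about 6 g, 6 cm) exposed at 21±1° C. Deaths checked after 48 h, and TLm (median tolerance limit, ppm) determined.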

rat = test: Acute toxicity test in rat by the oral route; assay type: in vivo; settings: Table 1, rat, 10080 min
Source text: Acute toxicity test in rat by the oral route

Structure (SMILES)	LC50 at 48 h [1] [µg/mL]	Toxicity to fish TLm, guppy [2] [ppm]	phytotoxicity (crop plants)	toxicity to fish in words (fish)	pesticidal effectiveness in words (pests)	Toxicity to fish TLm, killifish [3] [ppm]	TLm, Carp (48 hrs.) (carp (Cyprinus carpio L)) [ppm]	Acute oral toxicity to rat LD50 (rat) [mg/kg]
CC1(C)C(C=C(Cl)Cl)C1C(=O)OCc1cccc(Oc2ccccc2)c1 (stereo not shown) [Compound (B), Permethrin]	< 0.5	< 0.5	did not cause any injury to each one of the crop plants					
C#CC(OC(=O)[C@@H]1[C@@H](C=C(Cl)Cl)C1(C)C)c1cccc(Oc2ccc(Cl)cc2)c1 (relative stereo) [Compound (2) trans-]				by far low in toxicity to fish	outstanding in pesticidal activity against various pests			
C#CC(OC(=O)C1C(C=C(Cl)Cl)C1(C)C)c1cccc(Oc2ccc(Cl)cc2)c1 (stereo not drawn) [Compound (2) cis-/trans- = 50:50, 3-(4-chlorophenoxy)-α-ethynylbenzyl 2,2-dimethyl-3-(2,2-dichlorovinyl)cyclopropanecarboxylate]	> 10	> 10				> 10	2.8	> 3000
